Test results as given in publication PMC5013724 (Biochemistry, 2016).
Values after ≈ are worked out from the molar mass of the structure shown. “Also recorded” adds a separate entry of the source. Like-named read-outs stand apart in the source and are kept apart here.

Experiments:
[1] = target: TFR-PR^S17 precursor, p6pol/PR^S17 site (Human immunodeficiency virus type 1, UniProt P12497, E523D/G536V/I542V/L578M/M524I/M534L/N525D/V570S, form not given); assay type: biochemical, HIV-1; details: for Autoprocessing in the presence of inhibitor / Inhibition of the p6pol/PR site: 60 min; for Inhibition of autoprocessing of TFR-PR^S17, initial screening: after 60 min, overall autoprocessing
[2] = test system: TFR-PR^S17 precursor, p6pol/PR^S17 site; assay type: biochemical, HIV-1; details: p6pol/PR^S17 site
mature PR^S17 [3] = test system: mature PR^S17
wild-type PR = details: read-out: Inhibition of PR Ki, published sources, similar values from different sources averaged, ref [48]–[50],[30]; cited from earlier work
PR20 = details: read-out: Ki for PR20; ref [34]; cited from earlier work
mature PR^S17 [4] = assay type: biochemical, HIV-1; details: Ki for PR^S17 (kinetics) / Ki for PR
physchem = details: pH 5, aqueous buffer
[5] = test system: wild type TFR-PR precursor; details: read-out: IC50 for inhibition of autoprocessing of the wild type precursor; during expression in E. coli; ref [16]; cited from earlier work
TFR-PR20 = details: up to 150 μM inhibitor, expressed in E. coli; ref [16]; cited from earlier work
[6] = target: TFR-PR^S17 precursor, TFP/p6pol site (Human immunodeficiency virus type 1, UniProt P12497, E523D/G536V/I542V/L578M/M524I/M534L/N525D/V570S, form not given); assay type: biochemical, HIV-1; details: 60 min
[7] = inhibitor 70 μM (limit of solubility)

Structure (SMILES) | Inhibition of autoprocessing of TFR-PR^S17, initial screening ([1]; inhibitor 50 μM) | Difference in inhibition [autoprocessing, IC50/mature PR^S17, Ki] [2] | Ki (wild-type PR) [nM] | solubility (physchem) [µM] | other results
CC(C)CN(C[C@@H](O)[C@H](Cc1ccccc1)NC(=O)O[C@H]1CCOC1)S(=O)(=O)c1ccc(N)cc1 [APV, amprenavir] | almost complete inhibition | 682 | 0.2 | – | Autoprocessing in the presence of inhibitor ([1]; inhibitor 5 μM): complete autoprocessing; Fold higher affinity for PR^S17 relative to PR20 (mature PR^S17 [3]): 16 fold; Relative resistance (PR^S17/PR) (mature PR^S17 [3]; Ki for PR^S17 (ITC) / Ki for PR): 55; Ki (PR20): ~178 nM
COC(=O)N[C@H](C(=O)N[C@@H](Cc1ccccc1)[C@@H](O)CN(Cc1ccc(-c2ccccn2)cc1)NC(=O)[C@@H](NC(=O)OC)C(C)(C)C)C(C)(C)C [ATV, atazanavir] | – | 214 | 0.035 | 42 (≈ 29.6 µg/mL) | Relative resistance (PR^S17/PR) (mature PR^S17 [4]): 2000; Autoprocessing in the presence of inhibitor ([1]; inhibitor 10 μM): complete autoprocessing
CC(C)CN(C[C@@H](O)[C@H](Cc1ccccc1)NC(=O)O[C@H]1CO[C@H]2OCC[C@H]21)S(=O)(=O)c1ccc(N)cc1 [DRV, darunavir] | almost complete inhibition | – | 0.005 | – | IC50 [5]: 1000 to 2000 nM; Inhibition of autoprocessing of the PR20 precursor (TFR-PR20): no inhibition; also recorded: not inhibited
CC(C)(C)NC(=O)[C@@H]1CN(Cc2cccnc2)CCN1C[C@@H](O)C[C@@H](Cc1ccccc1)C(=O)N[C@H]1c2ccccc2C[C@H]1O [IDV, indinavir] | partial inhibition | – | 0.25 | – | Inhibition of the p6pol/PR site ([1]; inhibitor 50 μM): ~ 50%; Inhibition of the TFP/p6pol site ([6]; inhibitor 50 μM): insignificant inhibition
Cc1cccc(C)c1OCC(=O)N[C@@H](Cc1ccccc1)[C@@H](O)C[C@H](Cc1ccccc1)NC(=O)[C@H](C(C)C)N1CCCNC1=O [LPV, lopinavir] | almost no inhibition | – | 0.02 | 70 (≈ 44 µg/mL) | Inhibition of the p6pol/PR site [1, 7]: ~ 50%; Inhibition of the TFP/p6pol site [6, 7]: insignificant inhibition
Cc1c(O)cccc1C(=O)N[C@@H](CSc1ccccc1)[C@H](O)CN1C[C@H]2CCCC[C@H]2C[C@H]1C(=O)NC(C)(C)C [NFV, nelfinavir] | – | >7.2 | 0.36 | 42 (≈ 23.8 µg/mL) | Relative resistance (PR^S17/PR) (mature PR^S17 [4]): 16300
CC(C)c1nc(CN(C)C(=O)N[C@H](C(=O)N[C@@H](Cc2ccccc2)C[C@H](O)[C@H](Cc2ccccc2)NC(=O)OCc2cncs2)C(C)C)cs1 [RTV, ritonavir] | almost no inhibition | – | – | – | –
CC(C)(C)NC(=O)[C@@H]1C[C@@H]2CCCC[C@@H]2CN1C[C@@H](O)[C@H](Cc1ccccc1)NC(=O)[C@H](CC(N)=O)NC(=O)c1ccc2ccccc2n1 [SQV, saquinavir] | almost no inhibition | – | 0.39 | – | IC50 [5]: 1000 to 2000 nM; Inhibition of autoprocessing of the PR20 precursor (TFR-PR20): no inhibition; also recorded: not inhibited
